Measured values taken from patent US7468384B2, “Microbicidal composition” (Rohm and Haas Company, priority 2004, dated 2008).
Where two headings read alike, the source gives them in different places.

How the values were obtained:
Format in all cases: cell-based
[1] = tested on: Aspergillus niger (A. niger—ATCC 16404); assay: Synergy test, microtiter plate high resolution MIC assay, mold; conditions: for MIC: Aspergillus niger; for SI (calculated synergy index): A. niger 16404, PDB
Outline: (§1)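 Values derive from Kull synergy index (Qa/QA + Qb/QB, ppm MIC endpoints, alone vs in mixture). Endpoints from high-resolution microtiter MICs spanning 2–10,000 ppm; bacterium ~5×10^6/mL in TSB or M9GY, yeast and mold 5×10^5/mL in PDB.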

[2] = tested on: Candida albicans (C. albicans—ATCC 10231); assay: Synergy test, microtiter plate high resolution MIC assay, yeast; conditions: for MIC: Candida albicans
Outline: as §1

[3] = tested on: Pseudomonas aeruginosa (P. aeruginosa—ATCC #15442); assay: Synergy test, microtiter plate high resolution MIC assay, bacterium; conditions: for MIC: Pseudomonas aeruginosa
Outline: as §1

[4] = tested on: Escherichia coli (E. coli—ATCC #8739); assay: as above; conditions: Escherichia coli, ATCC8739, 24 h, read-out: MIC of component acting alone (QA / QB)
Outline: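 High-resolution MICs were found by adding microbicide to one microtitre column and making ten-fold dilutions with an automated liquid handler, giving endpoints from 2 ppm to 10,000 ppm active ingredient. The MIC is the lowest concentration that prevents growth. E. coli 8739, at roughly 5×10^6 cells per mL, grew in glucose/yeast-extract-supplemented minimal salt medium (M9GY). Values above one indicate antagonism.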

`Cn1sccc1=O` [2-methyl-3-isothiazolone, 2-methyl-4-isothiazolin-3-one] was tested, and the MIC ([1]; ATCC16404, 96 h, read-out: MIC of component acting alone (QA / QB)) was 400 µg/mL, the MIC ([1]; ATCC16404, 96 h, read-out: Qa: end-point activity (MIC) of MI in the mixture (MI alone, QA, where Qb = 0)) was 400 µg/mL and the MIC ([1]; ATCC16404, 168 h, read-out: MIC of component acting alone (QA / QB)) was 500 µg/mL. The MIC ([1]; ATCC16404, 168 h, read-out: Qa: end-point activity (MIC) of MI in the mixture (MI alone, QA, where Qb = 0)) was 400 µg/mL, the “SI (calculated synergy index)” value ([1]; Table 5, 7 days) was 1.00 and the “SI (calculated synergy index)” value ([1]; Table 6, 4 days) was 1.00. The MIC ([2]; ATCC10231, 24 h, read-out: MIC of component acting alone (QA / QB)) was 200 µg/mL, the MIC ([2]; ATCC10231, 24 h, read-out: Qa: end-point activity (MIC) of MI in the mixture (MI alone, QA, where Qb = 0)) was 125 µg/mL and the MIC ([2]; ATCC10231, 48 h, read-out: MIC of component acting alone (QA / QB)) was 200 µg/mL. The MIC ([2]; ATCC10231, 72 h, read-out: MIC of component acting alone (QA / QB)) was 200 µg/mL, the “SI (calculated synergy index)” value ([2]; Table 5, C. albicans 10231, PDB, 24 hours) was 1.00 and the “SI (calculated synergy index)” value ([2]; Table 6, C. albicans 10231, PDB, 24 hours) was 1.00. The “Qa: end-point activity (MIC) of MI in the mixture (MI alone, QA, where Qb = 0)” value ([2]; Table 6, C. albicans 10231, PDB, 24 hours, B = Cocamidopropyl PG-dimonium chloride phosphate) was 125 ppm, the “MIC of component acting alone (QA / QB)” value ([3]; P. aeruginosa 15442, M9GY, 48 hours) was 30 ppm and the MIC ([3]; ATCC15442, 24 h, read-out: MIC of component acting alone (QA / QB), P. aeruginosa 15442, TSB, 24 hours) was 50 µg/mL. It also gave an MIC ([3]; ATCC15442, 48 h, read-out: MIC of component acting alone (QA / QB), P. aeruginosa 15442, M9GY, 48 hours) of 20 µg/mL, an MIC ([3]; ATCC15442, 48 h, read-out: MIC of component acting alone (QA / QB), P. aeruginosa 15442, TSB, 48 hours) of 60 µg/mL and an MIC ([3]; ATCC15442, 48 h, read-out: Qa: end-point activity (MIC) of MI in the mixture (MI alone, QA, where Qb = 0), Table 5, P. aeruginosa 15442, M9GY, 48 hours, B = Linoleamidopropyl PG-dimonium chloride phosphate) of 30 µg/mL. It also gave an MIC ([3]; ATCC15442, 48 h, read-out: Qa: end-point activity (MIC) of MI in the mixture (MI alone, QA, where Qb = 0), Table 5, P. aeruginosa 15442, TSB, 48 hours, B = Linoleamidopropyl PG-dimonium chloride phosphate) of 80 µg/mL, an MIC ([3]; ATCC15442, 48 h, read-out: Qa: end-point activity (MIC) of MI in the mixture (MI alone, QA, where Qb = 0), Table 6, P. aeruginosa 15442, TSB, 48 hours, B = Cocamidopropyl PG-dimonium chloride phosphate) of 80 µg/mL and an MIC ([3]; ATCC15442, 72 h, read-out: MIC of component acting alone (QA / QB), P. aeruginosa 15442, TSB, 72 hours) of 70 µg/mL. For the same molecule, the MIC ([3]; ATCC15442, 72 h, read-out: Qa: end-point activity (MIC) of MI in the mixture (MI alone, QA, where Qb = 0), Table 6, P. aeruginosa 15442, M9GY, 72 hours, B = Cocamidopropyl PG-dimonium chloride phosphate) was 30 µg/mL, the “SI (calculated synergy index)” value ([3]; Table 5, P. aeruginosa 15442, M9GY, 48 hours) was 1.00 and the “SI (calculated synergy index)” value ([3]; Table 5, P. aeruginosa 15442, TSB, 48 hours) was 1.00. The “SI (calculated synergy index)” value ([3]; Table 6, P. aeruginosa 15442, M9GY, 72 hours) was 1.00, the “SI (calculated synergy index)” value ([3]; Table 6, P. aeruginosa 15442, TSB, 48 hours) was 1.00 and the MIC [4] was 30 µg/mL.
